*1 amine or outer side, *2 acyl side, *3 side chain or, on linkers, in order; H or OH if unused. Where a SMILES comes first, the peptide text is derived from it. Bridges are numbered along the chain shown (N, C = ends). [ ]: non-standard residue; d: D form. Phe(4-tBu) = CC(C)(C)c1ccc(C[C@H](N)C(=O)O)cc1; NMeR = CN[C@@H](CCCNC(=N)N)C(=O)O; β3hE = N[C@@H](CCC(=O)O)CC(=O)O; X1 = O=C(c1ccccc1C[*:2])[*:1]; Pen = CC(C)(S)[C@H](N)C(=O)O

In the first test the target is T1, RPMI 8866 cells (Homo sapiens, UniProt P13612+P26010).
T1 sequence (P13612 34-1032): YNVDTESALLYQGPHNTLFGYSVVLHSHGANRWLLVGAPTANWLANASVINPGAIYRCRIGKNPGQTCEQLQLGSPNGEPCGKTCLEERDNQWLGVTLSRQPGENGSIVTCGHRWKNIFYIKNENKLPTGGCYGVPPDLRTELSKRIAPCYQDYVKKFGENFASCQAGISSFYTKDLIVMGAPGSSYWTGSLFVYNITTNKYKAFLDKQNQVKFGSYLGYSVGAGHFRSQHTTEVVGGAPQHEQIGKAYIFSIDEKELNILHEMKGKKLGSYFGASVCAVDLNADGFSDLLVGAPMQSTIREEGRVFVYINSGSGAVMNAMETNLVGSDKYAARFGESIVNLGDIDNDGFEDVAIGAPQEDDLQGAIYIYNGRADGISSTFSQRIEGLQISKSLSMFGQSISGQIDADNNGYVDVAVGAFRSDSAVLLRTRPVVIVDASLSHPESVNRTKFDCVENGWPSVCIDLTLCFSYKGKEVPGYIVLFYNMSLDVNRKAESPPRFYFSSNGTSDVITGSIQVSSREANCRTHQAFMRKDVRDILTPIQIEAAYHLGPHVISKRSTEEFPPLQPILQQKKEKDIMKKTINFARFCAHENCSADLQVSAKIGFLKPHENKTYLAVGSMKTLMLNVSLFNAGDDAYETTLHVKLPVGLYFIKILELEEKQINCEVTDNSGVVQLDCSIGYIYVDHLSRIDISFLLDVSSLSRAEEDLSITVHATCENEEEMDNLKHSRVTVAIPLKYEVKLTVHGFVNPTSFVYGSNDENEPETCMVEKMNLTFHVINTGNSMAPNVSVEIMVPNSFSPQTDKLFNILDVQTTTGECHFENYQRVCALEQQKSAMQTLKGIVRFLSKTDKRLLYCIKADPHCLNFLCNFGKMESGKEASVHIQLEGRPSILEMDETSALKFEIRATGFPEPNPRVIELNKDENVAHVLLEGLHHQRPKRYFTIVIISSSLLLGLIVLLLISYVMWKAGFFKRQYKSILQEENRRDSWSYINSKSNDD
T1 sequence (P26010 20-798): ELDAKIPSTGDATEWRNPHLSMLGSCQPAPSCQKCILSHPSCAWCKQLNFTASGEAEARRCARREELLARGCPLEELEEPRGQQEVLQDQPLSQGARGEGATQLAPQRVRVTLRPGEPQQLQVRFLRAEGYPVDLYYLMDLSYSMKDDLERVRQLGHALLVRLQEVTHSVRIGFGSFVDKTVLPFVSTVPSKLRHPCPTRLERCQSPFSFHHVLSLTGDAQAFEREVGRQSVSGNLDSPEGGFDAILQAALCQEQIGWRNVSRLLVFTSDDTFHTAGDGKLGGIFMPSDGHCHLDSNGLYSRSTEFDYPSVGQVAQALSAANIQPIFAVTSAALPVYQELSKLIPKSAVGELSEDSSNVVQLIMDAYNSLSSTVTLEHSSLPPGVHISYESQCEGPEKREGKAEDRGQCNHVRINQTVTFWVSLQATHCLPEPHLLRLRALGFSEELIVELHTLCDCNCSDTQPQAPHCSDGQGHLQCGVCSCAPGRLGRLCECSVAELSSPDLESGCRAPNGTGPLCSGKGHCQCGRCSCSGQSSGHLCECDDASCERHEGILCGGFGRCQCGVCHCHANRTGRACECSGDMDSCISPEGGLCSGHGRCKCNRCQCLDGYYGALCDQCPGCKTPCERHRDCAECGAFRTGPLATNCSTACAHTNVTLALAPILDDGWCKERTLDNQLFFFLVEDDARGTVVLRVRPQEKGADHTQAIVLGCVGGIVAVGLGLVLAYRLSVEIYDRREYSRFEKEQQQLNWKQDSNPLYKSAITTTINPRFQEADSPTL
Nature of the test: α4β7-MAdCAM Cell Adhesion Assay. The format is cell-based. Conditions: thioether monomer peptides, Table 6; read-out: Cell-Adhesion A4B7. Here is the method:
α4β7-MAdCAM Cell Adhesion Assay
RPMI 8866 cells (Sigma #95041316) were cultured in RPMI 1640 HEPES medium (Invitrogen #22400-089) supplemented with 10% serum (Fetal Bovine Serum, Invitrogen #16140-071), 1 mM sodium pyruvate (Invitrogen #11360-070), 2 mM L-glutamine (Invitrogen #25030-081) and Penicillin-Streptomycin (Invitrogen #15140-122) at 100 units of penicillin and 100 μg of streptomycin per ml. The cells were washed two times in DMEM medium (ATCC #30-2002) supplemented with 0.1% BSA, 10 mM HEPES pH 7 and 1 mM MnCl2. The cells were re-suspended in supplemented DMEM medium at a density of 4×10^6 cells/ml.
A Nunc MaxiSorp plate was coated with rh MAdCAM-1/Fc Chimera (R&D #6065-MC) at 200 ng per well in 50 ul per well in 1×PBS and incubated at 4° C. overnight. The solution was then removed by shaking, blocked with 250 ul per well PBS containing 1% BSA, and incubated at 37° C. for 1 hr. The solution was removed by shaking. Peptides were diluted by serial dilution in a final volume of 50 ul per well (2× concentration). To each well, 50 ul of cells (200,000 cells) were added and the plate was incubated at 37° C., 5% CO2 for 30-45 min to allow cell adhesion. The wells were washed manually three times (100 ul per wash) with supplemented DMEM. After the final wash, 100 μl/well of supplemented DMEM and 10 ul/well of MTT reagent (ATTC cat #30-1010K) were added. The plate was incubated at 37° C., 5% CO2 for 2-3 hrs until a purple precipitate is visible. 100 ul of Detergent Reagent (ATTC cat #30-1010K) was added to each well. The plate was covered from the light, wrapped in Parafilm to prevent evaporation, and left overnight at room temperature in the dark. The plate was shaken for 5 min and the absorbance at 570 nm is measured. To calculate the dose response, the absorbance value of control wells not containing cells was subtracted from each test well.
Regarding `CC(C)C[C@@H]1NC(=O)[C@H]([C@@H](C)O)NC(=O)[C@H](CC(=O)O)NC(=O)[C@H](CO)NC(=O)[C@H](CCCNC(=N)N)N(C)C(=O)c2cccc(c2)CSC(C)(C)[C@@H](C(=O)N[C@@H](Cc2c[nH]c3ccccc23)C(=O)N[C@H](CCC(=O)O)C(=O)N[C@H](CCCCN)C(N)=O)NC1=O` [compound 111] (HELM PEPTIDE1{[meR].S.D.T.L.[Pen].W.[dE].[dK].[am]}|CHEM1{[O=C(c1cccc(C[*:2])c1)[*:1]]}$PEPTIDE1,CHEM1,1:R1-1:R1|PEPTIDE1,CHEM1,6:R3-1:R2$$$V2.0), the IC50 was over 1000 nM. As to `CC(C)C[C@@H]1NC(=O)[C@H]([C@@H](C)O)NC(=O)[C@H](CC(=O)O)NC(=O)[C@H](CO)NC(=O)[C@H](CCCNC(=N)N)N(C)C(=O)c2ccc(cc2)CSC(C)(C)[C@@H](C(=O)N[C@@H](Cc2c[nH]c3ccccc23)C(=O)N[C@H](CCC(=O)O)C(=O)N[C@H](CCCCN)C(N)=O)NC1=O` [compound 112] (HELM PEPTIDE1{[meR].S.D.T.L.[Pen].W.[dE].[dK].[am]}|CHEM1{[O=C(c1ccc(C[*:2])cc1)[*:1]]}$PEPTIDE1,CHEM1,1:R1-1:R1|PEPTIDE1,CHEM1,6:R3-1:R2$$$V2.0), the IC50 was over 1000 nM. Same read-out and setting: under `CC(C)C[C@@H]1NC(=O)[C@H]([C@@H](C)O)NC(=O)[C@H](CC(=O)O)NC(=O)[C@H](CO)NC(=O)[C@H](CCCNC(=N)N)N(C)C(=O)c2ccccc2CSC[C@@H](C(=O)N2Cc3ccccc3C[C@H]2C(=O)N[C@H](CCCCN)C(=O)O)NC1=O` [compound 118] (HELM PEPTIDE1{[meR].S.D.T.L.C.[Tic].[dK]}|CHEM1{[O=C(c1ccccc1C[*:2])[*:1]]}$PEPTIDE1,CHEM1,1:R1-1:R1|PEPTIDE1,CHEM1,6:R3-1:R2$$$V2.0) stands 100 to 1000 nM; under `CC(C)C[C@@H]1NC(=O)[C@H]([C@@H](C)O)NC(=O)[C@H](CC(=O)O)NC(=O)[C@H](C)NC(=O)[C@H](CCCNC(=N)N)N(C)C(=O)c2ccccc2CSC(C)(C)[C@@H](C(=O)N[C@@H](Cc2ccc(C(C)(C)C)cc2)C(=O)N[C@@H](CCC(=O)O)CC(N)=O)NC1=O` [compound 139] ([NMeR]ADTL[Pen][Phe(4-tBu)][β3hE]-NH2; linker N-6 via X1), 25 to 100 nM.

Staying with this test, now noted: thioether peptide dimers, Table 7; read-out: Cell-Adhesion A4B7.
In the case of “180 (RSDTLCXEK; not fully specified; CROSSLINK - N-term 2-Benzyl with a thioether bond between the N-term and the residue at position 6; MOD_RES 1 N-Methyl Arginine; SITE 7 aminoindan-2-carboxylic acid; SITE 8 D-Glu; SITE 9 D-Lys; SITE 9 C-term NH2) [compound 180]”, the IC50 is 100 to 1000 nM.

As for “181 (RSDTLXWEK; not fully specified; CROSSLINK - N-term 2-Benzyl with a thioether bond between the N-term and the residue at position 6; MOD_RES 1 N-Methyl Arginine; SITE 6 D-Penicillamine; SITE 9 D-Lys; SITE 9 C-term NH2) [compound 181]”, the IC50 is over 1000 nM. In the case of “221 (RSDTLCXK; not fully specified; CROSSLINK - N-term 2-Benzyl with a thioether bond between the N-term and the residue at position 6; MOD_RES 1 N-Methyl Arginine; SITE 7 (3S-)-1,2,3,4-tetrahydroisoquinoline-3-carboxylic acid; SITE 8 D-Lys; SITE 8 C-term OH) [compound 221]”, the IC50 was in the range of 25 to 100 nM. As to `CC(C)C[C@@H]1NC(=O)[C@H]([C@@H](C)O)NC(=O)[C@H](CC(=O)O)NC(=O)[C@H](CO)NC(=O)[C@H](CCCNC(=N)N)N(C)C(=O)C(C)SC(C)(C)[C@@H](C(=O)N[C@@H](Cc2c[nH]c3ccccc23)C(=O)N[C@H](CCCCN)C(N)=O)NC1=O` (single isomer, unassigned) [compound 148], the IC50 is over 1000 nM. Still for that read-out and setting: the result for `CC(C)C[C@@H]1NC(=O)[C@H]([C@@H](C)O)NC(=O)[C@H](CC(=O)O)NC(=O)[C@H](CO)NC(=O)[C@H](CCCNC(=N)N)N(C)C(=O)c2ccccc2CSC[C@@H](C(=O)N[C@@H](Cc2c[nH]c3ccccc23)C(=O)N[C@@H](CCC(=O)O)C(=O)N[C@H](CCCCN)C(N)=O)NC1=O` [compound 145] (HELM PEPTIDE1{[meR].S.D.T.L.C.W.E.[dK].[am]}|CHEM1{[O=C(c1ccccc1C[*:2])[*:1]]}$PEPTIDE1,CHEM1,1:R1-1:R1|PEPTIDE1,CHEM1,6:R3-1:R2$$$V2.0) reads 25 to 100 nM; that for `CC(C)C[C@@H]1NC(=O)[C@H]([C@@H](C)O)NC(=O)[C@H](CC(=O)O)NC(=O)[C@H](CO)NC(=O)[C@H](CCCNC(=N)N)N(C)C(=O)CSC(C)(C)[C@@H](C(=O)N[C@@H](Cc2c[nH]c3ccccc23)C(=O)N[C@H](CCCCN)C(N)=O)NC1=O` [compound 147], over 1000 nM; that for `CC(C)C[C@@H]1NC(=O)[C@H]([C@@H](C)O)NC(=O)[C@H](CC(=O)O)NC(=O)[C@H](CO)NC(=O)[C@H](CCCNC(=N)N)N(C)C(=O)c2ccccc2CSC[C@@H](C(=O)N[C@H](Cc2ccccc2)C(=O)N[C@@H](CCC(=O)O)C(=O)N[C@H](CCCCN)C(N)=O)NC1=O` [compound 186] (HELM PEPTIDE1{[meR].S.D.T.L.C.[dF].E.[dK].[am]}|CHEM1{[O=C(c1ccccc1C[*:2])[*:1]]}$PEPTIDE1,CHEM1,1:R1-1:R1|PEPTIDE1,CHEM1,6:R3-1:R2$$$V2.0), 25 to 100 nM. On the same count and under the same terms, under `CC(C)C[C@@H]1NC(=O)[C@H]([C@@H](C)O)NC(=O)[C@H](CC(=O)O)NC(=O)[C@H](CO)NC(=O)[C@H](CCCNC(=N)N)N(C)C(=O)c2ccccc2CSC[C@@H](C(=O)N[C@H](Cc2ccccc2)C(=O)N[C@H](CCC(=O)O)C(=O)N[C@H](CCCCN)C(N)=O)NC1=O` [compound 187] (HELM PEPTIDE1{[meR].S.D.T.L.C.[dF].[dE].[dK].[am]}|CHEM1{[O=C(c1ccccc1C[*:2])[*:1]]}$PEPTIDE1,CHEM1,1:R1-1:R1|PEPTIDE1,CHEM1,6:R3-1:R2$$$V2.0) stands 25 to 100 nM.

(Values after patent publication US20260217767A1, “NOVEL A4B7 THIOETHER PEPTIDE DIMER ANTAGONISTS” (Protagonist Therapeutics, Inc., priority 2014, published 2026).)
